Assay results as given in patent US20260078130A1, “NAMPT MODULATORS, PREPARATIONS, AND USES THEREOF” (SIRONAX LTD., priority 2022, published 2026).
Read-outs that look alike come from different tables or passages of the source.

What was measured:
[1] = tested on: endogenous NAMPT in U2OS cells; test: Cellular NAD+ modulation assay (NAD/NADH-Glo, U2OS cells); type: cell-based; conditions: Homo sapiens; for maximal fold induction: read-out: Cellular Emax
In short: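 NAD/NADH-Glo luminescence quantified NAD+ after acid treatment (60 °C, 15 min) and neutralization of DTAB lysates. Beforehand, U2OS cells seeded 16 h earlier received compound concentration series for 24 h at 37 °C. Values given as half-maximal activation concentration (EC50) and maximal fold change versus DMSO (Emax).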

[2] = target: T1, human enzyme NAMPT (full length) (Homo sapiens, UniProt P43490); test: NMN fluorescence biochemical assay (stimulation of NMN synthesis by NAMPT); conditions: for EC50: concentration giving half-maximal activation, read-out: Enzymatic EC50; for Enzymatic Emax: fold change of maximal activation compared to DMSO
T1 construct: human enzyme NAMPT (full length)
In short: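 Full-length human NAMPT (100 nM) was preincubated 15 min at 37 °C with compound in 50 mM Tris-HCl pH 7.5, 10 mM MgCl2, 2 mM DTT, then reacted 1 h at 37 °C with 50 μM NAM, 100 μM PRPP, 4 mM ATP (stated solution concentrations). NMN was derivatised with acetophenone/KOH then formic acid and read at Ex/Em 382/445 nm; EC50 and Emax (fold over DMSO) reported.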

[3] = 24 hours incubation, cellular NAD+
[4] = NMN fluorescence assay, purified human NAMPT 100 nM
[5] = 24 hours incubation with compound
[6] = NMN synthesis by purified human NAMPT (100 nM)

T1 sequence (P43490 whole entry): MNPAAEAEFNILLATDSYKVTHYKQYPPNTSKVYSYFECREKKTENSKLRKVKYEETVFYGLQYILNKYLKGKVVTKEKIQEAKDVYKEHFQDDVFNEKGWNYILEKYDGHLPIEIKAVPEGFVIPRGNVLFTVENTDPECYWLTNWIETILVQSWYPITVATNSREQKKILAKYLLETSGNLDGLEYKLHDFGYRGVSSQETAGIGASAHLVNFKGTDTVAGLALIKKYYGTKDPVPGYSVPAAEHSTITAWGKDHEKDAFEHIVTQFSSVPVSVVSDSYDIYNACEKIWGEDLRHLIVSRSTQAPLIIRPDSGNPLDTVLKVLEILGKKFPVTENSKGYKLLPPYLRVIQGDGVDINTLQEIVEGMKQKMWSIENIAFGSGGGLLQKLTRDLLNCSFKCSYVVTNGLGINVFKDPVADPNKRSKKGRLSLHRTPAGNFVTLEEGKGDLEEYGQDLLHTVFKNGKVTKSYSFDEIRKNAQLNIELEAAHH

SMILES	EC50 [1, 3]	maximal fold induction [1, 3]	EC50 [2, 4]	Enzymatic Emax [2]	EC50 [1, 5]	maximal fold induction [1, 5]	EC50 [2, 6]
COc1ccc(CN2C(=O)c3ccccc3C2Cc2c(Cl)cnn2C)cn1 (stereo not drawn) [Compound 574, 3-((4-chloro-1-methyl-1H-pyrazol-5-yl)methyl)-2-((6-methoxypyridin-3-yl)methyl)isoindolin-1-one]	0.5 to 5 µM	> 1.5	0.5 to 5 µM	B (3≥B>2)	–	–	–
O=C1c2ccccc2CN1Cc1ccc2[nH]nnc2c1 [Compound 289, 2-((1H-benzo[d][1,2,3]triazol-5-yl)methyl)isoindolin-1-one]	–	–	–	C (2≥C)	5 to 50 µM	1.2 to 1.5	≥ 5 µM
COc1ccc(CN2C(=O)c3c(F)cc(Cl)cc3C2Cc2c(Cl)cnn2C)cc1 (stereo not drawn) [Compound 581, 5-chloro-3-((4-chloro-1-methyl-1H-pyrazol-5-yl)methyl)-7-fluoro-2-(4-methoxybenzyl)isoindolin-1-one]	0.5 to 5 µM	1.2 to 1.5	0.5 to 5 µM	A (A>3)	–	–	–
Cn1ncc(Cl)c1CC1c2cc(N3CCOCC3)ccc2C(=O)N1CC1CC2(CNC(=O)O2)C1 (stereo not drawn) [Compound 463, 2-((3-((4-chloro-1-methyl-1H-pyrazol-5-yl)methyl)-5-morpholino-1-oxoisoindolin-2-yl)methyl)-5-oxa-7-azaspiro[3.4]octan-6-one]	< 0.5 µM	> 1.5	0.5 to 5 µM	B (3≥B>2)	–	–	–
COc1ccc(CN2C(=O)c3ccccc3C2Cc2c(Cl)cnn2C)cc1 (stereo not drawn) [Compound 518, 3-((4-chloro-1-methyl-1H-pyrazol-5-yl)methyl)-2-(4-methoxybenzyl)isoindolin-1-one]	< 0.5 µM	1.2 to 1.5	0.5 to 5 µM	B (3≥B>2)	–	–	–
Cn1ncc(Cl)c1C[C@@H]1c2ccccc2C(=O)N1C[C@H]1C[C@]2(CNC(=O)O2)C1 [Compound 405, (2s,4S)-2-(((R)-1-((4-chloro-1-methyl-1H-pyrazol-5-yl)methyl)-3-oxoisoindolin-2-yl)methyl)-5-oxa-7-azaspiro[3.4]octan-6-one]	5 to 50 µM	1.2 to 1.5	0.5 to 5 µM	C (2≥C)	–	–	–
Cn1ncc(Cl)c1CC1c2ccccc2C(C)(C)N1Cc1ccc2[nH]nnc2c1 (stereo not drawn) [Compound 608, 5-((3-((4-chloro-1-methyl-IH-pyrazol-5-yl)methyl)-1,1-dimethylisoindolin-2-yl)methyl)-1H-benzo[d][1,2,3]triazole]	0.5 to 5 µM	> 1.5	< 0.5 µM	A (A>3)	–	–	–
Cc1ccnc(C#N)c1CC1c2cccc(F)c2C(=O)N1CC1CC2(CNC(=O)O2)C1 (stereo not drawn) [Compound 428, 3-((4-fluoro-3-oxo-2-((6-oxo-5-oxa-7-azaspiro[3.4]octan-2-yl)methyl)isoindolin-1-yl)methyl)-4-methylpicolinonitrile]	< 0.5 µM	> 1.5	0.5 to 5 µM	B (3≥B>2)	–	–	–
Cc1noc2cc(CN3C(=O)c4ccccc4C3Cc3c(Cl)cnn3C)ccc12 (stereo not drawn) [Compound 594, 3-((4-chloro-1-methyl-1H-pyrazol-5-yl)methyl)-2-((3-methylbenzo[d]isoxazol-6-yl)methyl)isoindolin-1-one]	< 0.5 µM	1.2 to 1.5	≥ 5 µM	B (3≥B>2)	–	–	–
N#Cc1ccc(CC2c3ccccc3C(=O)N2Cc2ccc3[nH]c(=O)oc3c2)cc1 (stereo not drawn) [Compound 148, 4-((3-oxo-2-((2-oxo-2,3-dihydrobenzo[d]oxazol-6-yl)methyl)isoindolin-1-yl)methyl) benzonitrile]	–	–	–	B (3≥B>2)	0.5 to 5 µM	> 1.5	0.5 to 5 µM
Cn1cccc(CC2c3ccccc3C(=O)N2Cc2ccc3[nH]c(=O)oc3c2)c1=O (stereo not drawn) [Compound 234, 6-((1-((1-methyl-2-oxo-1,2-dihydropyridin-3-yl)methyl)-3-oxoisoindolin-2-yl)methyl) benzo[d]oxazol-2(3H)-one]	–	–	–	A (A>3)	0.5 to 5 µM	> 1.5	≥ 5 µM
O=C1c2ccccc2C(Cc2ccccn2)N1Cc1ccc2[nH]c(=O)oc2c1 (stereo not drawn) [Compound 129, 6-((1-oxo-3-(pyridin-2-ylmethyl)isoindolin-2-yl)methyl)benzo[d]oxazol-2(3H)-one]	–	–	–	A (A>3)	0.5 to 5 µM	> 1.5	0.5 to 5 µM
O=C1c2ccccc2C(Cc2ccccc2OC(F)F)N1Cc1ccc2[nH]c(=O)oc2c1 (stereo not drawn) [Compound 210, 6-((1-(2-(difluoromethoxy)benzyl)-3-oxoisoindolin-2-yl)methyl)benzo[d]oxazol-2(3H)-one]	–	–	–	A (A>3)	0.5 to 5 µM	> 1.5	0.5 to 5 µM
COc1ccc(CN2C(=O)c3ccccc3C2Cc2c(Cl)c(Cl)nn2C)cc1 (stereo not drawn) [Compound 566, 3-((3,4-dichloro-1-methyl-1H-pyrazol-5-yl)methyl)-2-(4-methoxybenzyl)isoindolin-1-one]	< 0.5 µM	> 1.5	0.5 to 5 µM	A (A>3)	–	–	–
Cn1ncc(Cl)c1CC1c2ccccc2C(=O)N1C[C@@H]1CC1c1c[nH]nn1 (stereo in doubt) [Compound 548, trans 2-((2-(1H-1,2,3-triazol-4-yl)cyclopropyl)methyl)-3-((4-chloro-1-methyl-1H-pyrazol-5-yl)methyl)isoindolin-1-one]	< 0.5 µM	> 1.5	–	B (3≥B>2)	–	–	–
Cn1ncc(Cl)c1CC1c2ccccc2C(=O)N1CC1CC2(CNC(=O)O2)C1 (stereo not drawn) [Compound 307, 2-((1-((4-chloro-1-methyl-1H-pyrazol-5-yl)methyl)-3-oxoisoindolin-2-yl)methyl)-5-oxa-7-azaspiro[3.4]octan-6-one]	–	–	–	B (3≥B>2)	< 0.5 µM	> 1.5	0.5 to 5 µM
COc1ccc(CN2C(=O)c3ccc(Br)cc3C2Cc2c(Cl)cnn2C)cn1 (stereo not drawn) [Compound 622, 5-bromo-3-((4-chloro-1-methyl-1H-pyrazol-5-yl)methyl)-2-((6-methoxypyridin-3-yl)methyl)isoindolin-1-one]	0.5 to 5 µM	> 1.5	≥ 5 µM	A (A>3)	–	–	–
O=C1c2ccccc2CCN1Cc1ccc(O)cc1 [Compound 2, 2-(4-hydroxybenzyl)-3,4-dihydroisoquinolin-1(2H)-one]	–	–	–	A (A>3)	0.5 to 5 µM	> 1.5	0.5 to 5 µM
CC(=O)Nc1ccc(CN2Cc3ccccc3C2=O)cc1 [Compound 104, N-(4-((1-oxoisoindolin-2-yl)methyl)phenyl)acetamide]	–	–	–	B (3≥B>2)	5 to 50 µM	> 1.5	≥ 5 µM
O=C1c2ccccc2C(Cc2ncccc2Br)N1Cc1ccc2[nH]nnc2c1F (stereo not drawn) [Compound 330, 3-((3-bromopyridin-2-yl)methyl)-2-((4-fluoro-1H-benzo[d][1,2,3]triazol-5-yl)methyl)isoindolin-1-one]	0.5 to 5 µM	> 1.5	< 0.5 µM	A (A>3)	–	–	–
O=C1c2ccccc2C(Cc2ncccc2Br)N1Cc1cc2nn[nH]c2cc1F (stereo not drawn) [Compound 271, 3-((3-bromopyridin-2-yl)methyl)-2-((6-fluoro-1H-benzo[d][1,2,3]triazol-5-yl)methyl) isoindolin-1-one]	–	–	–	A (A>3)	0.5 to 5 µM	> 1.5	0.5 to 5 µM
Cn1ncc(Cl)c1CC1c2cc(CN3CCCC3)ccc2C(=O)N1CC1CC2(CNC(=O)O2)C1 (stereo not drawn) [Compound 462, 2-((3-((4-chloro-1-methyl-1H-pyrazol-5-yl)methyl)-1-oxo-5-(pyrrolidin-1-ylmethyl)isoindolin-2-yl)methyl)-5-oxa-7-azaspiro[3.4]octan-6-one]	5 to 50 µM	> 1.5	0.5 to 5 µM	C (2≥C)	–	–	–
COc1ccc(CN2C(=O)c3ccccc3C2(C)Cc2c(Cl)cnn2C)cn1 (stereo not drawn) [Compound 620, 3-((4-chloro-1-methyl-1H-pyrazol-5-yl)methyl)-2-((6-methoxypyridin-3-yl)methyl)-3-methylisoindolin-1-one]	0.5 to 5 µM	1.2 to 1.5	≥ 5 µM	B (3≥B>2)	–	–	–
Cc1cccnc1C[C@H]1c2ccccc2C(=O)N1Cc1ccc2[nH]c(=O)oc2c1 [Compound 178, (S)-6-((1-((3-methylpyridin-2-yl)methyl)-3-oxoisoindolin-2-yl)methyl)benzo[d]oxazol-2(3H)-one]	–	–	–	A (A>3)	< 0.5 µM	> 1.5	< 0.5 µM
Cn1ncc(Cl)c1CC1c2cc(Br)ccc2C(=O)N1CC1CC2(CNC(=O)O2)C1 (stereo not drawn) [Compound 450, 2-((5-bromo-3-((4-chloro-1-methyl-1H-pyrazol-5-yl)methyl)-1-oxoisoindolin-2-yl)methyl)-5-oxa-7-azaspiro[3.4]octan-6-one]	< 0.5 µM	> 1.5	0.5 to 5 µM	A (A>3)	–	–	–
